Reference: PMC6624297 (Cell Death & Disease, 2019)

How the values were obtained:
HepG2 cells = test: MTT assay HepG2; format: cell-based; conditions: Homo sapiens, 24h of treatment, mean ± SD
Protocol: (§1) Details are given in Supplementary Materials and Methods. Using probability unit and weighted regression method to calculate the IC50 value of compounds.
(§2) Total cells in the logarithmic growth phase were collected, digested using 0.25% pancreatic enzymes, and then diluted into single-cell suspensions using phosphate-buffered solution (PBS). These cells were seeded into 96-well plates at 4× 10^3-5× 10^3 cells per well (100 µL per well) and then A549, H460, OVCAR-3, SGC7901, MDA-MB-231, HCT116 and HepG2 were cultured at 37°Cin an incubator containing 5% CO2. After cell complete attachment, 100 µL of different concentrations of compounds (0.625 μM, 1.25 μM, 2.5μM, 5 μM, 10 μM) were added to the cells after the nutrient solution in each well was discarded, while no compound except 0.1% DMSO was added to cells in the control group; at the same time, each concentration was set up to 5 wells. In addition, 5 wells in each 96-well plate only received 100 µL of nutrient solution as a blank control. The plates were taken out after the cells were incubated with compounds for 24 h, and 20 µL of MTT solution (5 mg/mL) (Wuhan Boster Biotechnology Limited Company, Wuhan, China; item No. AR1156) was added into all the wells. After another time of incubation for 4 h at 37 °C, the nutrient solution in each well was discarded slowly, and 150 µL of DMSO was added to each well. The plates were shaken on a shaking table for 20 min. When the crystals were fully dissolved, the blank wells were used to zero the plate reader. The optical density (OD) of each well was detected at 490 nm. The IC50 value was determined as the concentration of the inhibitor that caused 50% inhibition. Using probability unit and weighted regression method to calculate the IC50 value of compounds.

A549 cells [1] = test: MTT assay A549; format: cell-based, human; conditions: Homo sapiens, A549, 24h of treatment, mean ± SD
Protocol: as §1, §2

SGC7901 cells = test: MTT assay SGC7901; format: cell-based; conditions: Homo sapiens, SGC-7901, 24h of treatment, mean ± SD
Protocol: as §1, §2

EGFR kinase = EGFR kinase (Homo sapiens, UniProt P00533); test: ADP-Glo kinase assay, EGFR; format: biochemical; conditions: averages from triplicate assays
Chain of EGFR kinase (P00533 25-1210): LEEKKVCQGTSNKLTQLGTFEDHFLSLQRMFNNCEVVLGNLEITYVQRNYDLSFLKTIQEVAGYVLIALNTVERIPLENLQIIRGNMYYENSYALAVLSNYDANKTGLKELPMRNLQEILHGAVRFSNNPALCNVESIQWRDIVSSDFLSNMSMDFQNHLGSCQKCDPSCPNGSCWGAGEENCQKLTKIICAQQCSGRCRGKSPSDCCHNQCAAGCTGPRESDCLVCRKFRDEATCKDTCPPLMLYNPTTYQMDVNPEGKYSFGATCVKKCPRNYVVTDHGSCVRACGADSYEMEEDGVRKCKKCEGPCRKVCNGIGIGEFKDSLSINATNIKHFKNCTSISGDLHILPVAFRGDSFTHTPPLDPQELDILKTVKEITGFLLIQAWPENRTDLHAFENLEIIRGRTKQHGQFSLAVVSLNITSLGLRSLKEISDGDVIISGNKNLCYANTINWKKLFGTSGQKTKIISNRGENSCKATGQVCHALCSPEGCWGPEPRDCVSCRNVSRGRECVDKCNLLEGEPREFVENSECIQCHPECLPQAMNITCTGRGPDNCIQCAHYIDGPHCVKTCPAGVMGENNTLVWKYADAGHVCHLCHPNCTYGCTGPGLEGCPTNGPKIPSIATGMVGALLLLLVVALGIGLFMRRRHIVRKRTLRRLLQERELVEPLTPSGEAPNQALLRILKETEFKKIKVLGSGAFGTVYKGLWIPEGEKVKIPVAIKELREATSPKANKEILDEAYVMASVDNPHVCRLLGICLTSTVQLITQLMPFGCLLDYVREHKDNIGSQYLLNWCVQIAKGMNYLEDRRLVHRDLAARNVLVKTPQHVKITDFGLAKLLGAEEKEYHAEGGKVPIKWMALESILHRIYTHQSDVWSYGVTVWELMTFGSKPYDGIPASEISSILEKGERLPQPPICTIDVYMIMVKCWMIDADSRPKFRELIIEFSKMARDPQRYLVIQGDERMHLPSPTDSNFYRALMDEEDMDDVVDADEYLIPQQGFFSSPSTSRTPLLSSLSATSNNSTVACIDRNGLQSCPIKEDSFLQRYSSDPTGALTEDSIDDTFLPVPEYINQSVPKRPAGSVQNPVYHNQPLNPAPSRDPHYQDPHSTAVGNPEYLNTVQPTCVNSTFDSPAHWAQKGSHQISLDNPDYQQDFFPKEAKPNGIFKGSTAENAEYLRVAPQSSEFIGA
Protocol: (§3) The ADP-Glo™ kinase assay (Promega, Madison, WI) was used to screen target compounds for their inhibition effects for BRaf, EGFR kinase. The kinase assay was carried out in a 96-well plate, in a volume of 25 μL HEPES (pH 7.3) solvent containing 1.6 μg/mL EGF, and 20 ng of EGFR kinase, or 50 ng BRaf kinase, and 10 μM ATP (Promega, Madison, WI). […] Reactions in each well were started immediately by adding ATP and kept going for half an hour under 30 °C in a constant temperature incubator (Bluepard, Shanghai, China). After the plate cooled for 5 min at room temperature, 25 μl of ADP-Glo reagent was added into each well to stop the reaction and consume the remaining […] within 40 min. At the end, 50 μl of kinase detection reagent was added into the well and incubated for 1 h to produce a luminescence signal.

OVCAR-3 cells = test: MTT assay OVCAR-3; format: cell-based; conditions: Homo sapiens, 24h of treatment, mean ± SD
Protocol: as §1, §2

HCT-116 cells = test: MTT assay HCT-116; format: cell-based; conditions: Homo sapiens, 24h of treatment, mean ± SD
Protocol: as §1, §2

MDA-MB-231 cells = test: MTT assay MDA-MB-231; format: cell-based; conditions: Homo sapiens, 24h of treatment, mean ± SD
Protocol: as §1, §2

BRaf kinase = BRaf kinase (Homo sapiens, UniProt P15056); test: ADP-Glo kinase assay, BRaf; format: biochemical; conditions: averages from triplicate assays
Chain of BRaf kinase (P15056 whole entry): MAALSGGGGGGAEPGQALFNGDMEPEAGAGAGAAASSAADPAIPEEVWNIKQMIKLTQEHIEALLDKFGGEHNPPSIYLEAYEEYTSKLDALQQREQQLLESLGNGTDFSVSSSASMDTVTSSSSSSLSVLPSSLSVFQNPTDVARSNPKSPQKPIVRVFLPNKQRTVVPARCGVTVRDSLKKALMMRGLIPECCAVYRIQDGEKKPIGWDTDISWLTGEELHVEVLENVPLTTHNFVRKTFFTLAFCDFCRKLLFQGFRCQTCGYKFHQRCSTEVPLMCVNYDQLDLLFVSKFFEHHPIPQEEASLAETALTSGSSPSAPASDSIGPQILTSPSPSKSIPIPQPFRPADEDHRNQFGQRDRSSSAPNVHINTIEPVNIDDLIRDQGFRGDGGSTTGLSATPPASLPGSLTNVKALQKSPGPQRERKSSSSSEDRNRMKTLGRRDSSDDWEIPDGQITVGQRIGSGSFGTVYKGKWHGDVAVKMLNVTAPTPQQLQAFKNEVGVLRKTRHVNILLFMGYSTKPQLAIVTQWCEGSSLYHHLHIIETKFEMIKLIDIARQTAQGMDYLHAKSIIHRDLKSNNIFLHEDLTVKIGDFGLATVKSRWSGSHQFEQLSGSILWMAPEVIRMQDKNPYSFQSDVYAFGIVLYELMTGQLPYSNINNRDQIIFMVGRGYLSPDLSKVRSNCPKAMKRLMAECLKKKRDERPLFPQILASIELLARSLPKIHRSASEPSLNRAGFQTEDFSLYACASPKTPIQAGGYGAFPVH
Protocol: as §3

human TS (hTS) = biological target: T1, human TS (hTS) (Homo sapiens, UniProt P04818); test: Thymidylate synthase (TS) spectrophotometric assay; format: biochemical; conditions: averages from triplicate assays
T1 construct: purchased ProSpec-Tany
T1 sequence (P04818 whole entry): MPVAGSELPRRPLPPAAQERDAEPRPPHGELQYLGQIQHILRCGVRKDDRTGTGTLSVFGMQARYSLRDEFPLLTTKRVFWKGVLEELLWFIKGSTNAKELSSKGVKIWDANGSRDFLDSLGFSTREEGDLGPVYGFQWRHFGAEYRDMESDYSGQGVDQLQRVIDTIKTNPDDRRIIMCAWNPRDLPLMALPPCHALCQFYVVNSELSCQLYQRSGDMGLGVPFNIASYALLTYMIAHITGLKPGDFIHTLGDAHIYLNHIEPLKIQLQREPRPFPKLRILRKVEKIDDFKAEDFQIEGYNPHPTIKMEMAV
Protocol: Recombinant human thymidylate synthase purchased from ProSpec-Tany Company. TS was assayed spectrophotometrically at 30 °C and pH 7.4 in a mixture containing 0.1 M 2-mercaptoethanol, 0.0003 M (6R,S)-tetrahydrofolate, 0.012 M formaldehyde, 0.02 M MgCl2, 0.001 M dUMP, 0.04 M Tris–HCl, 30 nM hTS, and 0.00075 M NaEDTA. […] The reaction was initiated by the addition of an amount of enzyme yielding a change in absorbance at 340 nm of 0.016/min in the absence of inhibitor.

GES-1 cell line = test: Selectivity index against GES-1; format: cell-based; conditions: SI = CC50/IC50
HTB-125 cell line = test: Selectivity index against HTB-125; format: cell-based; conditions: SI = CC50/IC50
HPAEpiC cell line = test: Selectivity index against HPAEpiC; format: cell-based; conditions: SI = CC50/IC50
LO2 cell line = test: Selectivity index against LO2; format: cell-based; conditions: SI = CC50/IC50
HCoEpiC cell line = test: Selectivity index against HCoEpiC; format: cell-based; conditions: SI = CC50/IC50
A549 cells [2] = test: Transwell migration and wound healing, A549; format: cell-based, human; conditions: at high doses
Protocol: Cell migration ability was measured using transwell chambers (8-μm pore size; Corning Costar, Cambridge, MA, USA). For the transwell assay, A549 and H460 cells suspended in serum-free RPMI-1640 medium containing different concentrations of L14e (0, 0.5, 1.0, and 1.5 μM) were seeded into the upper chamber. The lower chamber contained RPMI-1640 medium supplemented with 20% serum. After 24 h incubation, the filters were fixed in methanol and stained with 0.1% crystal violet. The upper faces of the filters were gently abraded, and the lower faces with cells migrated across the filters were imaged and counted under the microscope. For wound healing assays, cells were placed into 6-well plates and cultured until 100% confluence. An artificial scratch was created using a 200 μL pipette tip. Add serum-free RPMI-1640 medium containing different concentrations of drugs. At 24 h after culturing in serum-free medium, wound closure images were captured in the same field under magnification. Cell healing rates were calculated by the fraction of cell coverage across the line. These experiments were performed in triplicate and repeated three times.

SK-MES-1 cells = test: MTT assay SK-MES-1; format: cell-based
IOSE80 cell line = test: Selectivity index against IOSE80; format: cell-based; conditions: SI = CC50/IC50
FVB mice = test: Toxicity test in FVB mice; format: in vivo; conditions: mice, 3 weeks
Protocol: Blood was collected from euthanized mice under isoflurane-induced deep anesthesia by cardiac puncture. After allowing blood coagulation at 4 °C, serum was collected by centrifugation at 3000 rpm for 10 min at 4 °C. Analysis of the level of ALT, AST, Glu and CRE in the serum was performed using a veterinary hematology analyzer (Fuji DRI-Chem 3500 s, Fujifilm, Tokyo, Japan) according to the manufacturer’s provided protocols. The histopathological changes in liver, lung, brain, and kidney were evaluated by using HE-stained section of the tissues (This part of the results is in the supplementary document).
Tissues were fixed in 10% neutral-buffered formalin for 24 h, embedded in paraffin, cut into 4-μm-thick sections, deparaffinized with xylene and processed with a graded ethanol series. Next, the sections were stained with HE and were observed using Eclipse Ts2 microscope (Nikon).

Row | SMILES | IC50 (HepG2 cells) [µM] | IC50 (A549 cells [1]) [µM] | IC50 (SGC7901 cells) [µM] | IC50 (EGFR kinase) [µM] | melting point [°C] | IC50 (OVCAR-3 cells) [µM] | IC50 (HCT-116 cells) [µM] | IC50 (MDA-MB-231 cells) [µM] | IC50 (BRaf kinase) [µM] | IC50 (human TS (hTS)) [µM] | SI (Selectivity index) GES-1 (GES-1 cell line) | SI (Selectivity index) HTB-125 (HTB-125 cell line) | SI (Selectivity index) HPAEpiC (HPAEpiC cell line) | SI (Selectivity index) LO2 (LO2 cell line) | SI (Selectivity index) HCoEpiC (HCoEpiC cell line) | inhibition of A549 cells migration (A549 cells [2]) | inhibition of SK-MES-1 cells (SK-MES-1 cells) | SI (Selectivity index) IOSE80 (IOSE80 cell line) | histopathological changes in liver, lung, brain, and kidney (HE staining) (FVB mice)
1 | Cc1ccc(NC(=O)Nc2ccc(NS(=O)(=O)c3c[nH]c(=O)[nH]c3=O)cc2)cc1 [Compound L13i, N'-(4-methylphenyl)-4-(2,4-dihydroxypyrimidine-5-sulfonamido) phenyl urea] | 8.25 ± 0.25 | 3.48 ± 0.13 | 4.92 ± 0.23 | 5.48 | 181 to 183 | > 10 | 7.98 ± 0.61 | > 10 | 4.91 | 7.39 | – | – | – | – | – | – | – | – | –
2 | O=C(NNC(=O)c1ccccc1NS(=O)(=O)c1c[nH]c(=O)[nH]c1=O)c1cccc(Cl)c1 [Compound 10l, reference compound] | 7.66 ± 0.77 | 1.26 ± 0.16 | 1.82 ± 0.08 | 2.71 | – | 2.08 ± 0.12 | 2.27 ± 0.23 | 2.04 ± 0.37 | 1.67 | 1.36 | 14.25 | 5.26 | 16.56 | 12.57 | 4.09 | could inhibit A549 cells migration at high doses | did not inhibit | 11.90 | –
3 | O=C(Nc1ccc(Cl)cc1)Nc1ccc(NS(=O)(=O)c2c[nH]c(=O)[nH]c2=O)cc1 [Compound L13f, N'-(4-chlorophenyl)-4-(2,4-dihydroxypyrimidine-5-sulfonamido)phenylurea] | 4.35 ± 0.45 | 0.99 ± 0.07 | 3.98 ± 0.05 | 4.65 | 175 to 177 | 8.04 ± 0.32 | 5.53 ± 0.25 | 8.89 ± 2.42 | 3.59 | 6.3 | – | – | – | – | – | – | – | – | –
4 | O=C(Nc1ccc(NS(=O)(=O)c2c[nH]c(=O)[nH]c2=O)cc1)Nc1cccc(Cl)c1 [Compound L13e, N'-(3-chlorophenyl)-4-(2,4-dihydroxypyrimidine-5-sulfonamido)phenylurea] | 2.81 ± 0.16 | 0.95 ± 0.05 | 3.38 ± 0.18 | 4.41 | 169 to 171 | 1.05 ± 0.42 | 2.46 ± 0.06 | 2.48 ± 1.46 | 3.64 | 4.55 | – | – | – | – | – | – | – | – | –
5 | Nc1nc2[nH]cc(CCc3ccc(C(=O)N[C@@H](CCC(=O)O)C(=O)O)cc3)c2c(=O)[nH]1 [PTX, pemetrexed, reference compound] | – | 3.29 ± 0.15 | 6.96 ± 0.43 | – | – | 7.35 ± 0.6 | 4.64 ± 0.22 | 4.18 ± 0.14 | – | – | – | – | – | – | – | – | did not inhibit | – | no visible pathological changes
